In patent publication US10220039B2, “Method of treating polycystic kidney diseases with ceramide derivatives” (Genzyme Corporation, priority 2007, dated 2019):

Tested on: jck mice
Test: jck mouse model of polycystic kidney disease, 0.225% Compound A in feed, 26-64 days of age
Format: in vivo
Conditions: for K/BW ratio (%) / Body weight / BUN / Cystic volume (% BW): treated, 26-64 days of age; for K/BW ratio (%) / Body weight: 0.225% in feed ad libitum; for Body weight: at sacrifice; for BUN / Cystic volume (% BW): 0.225% in feed; for Cystic volume (% BW): percentage cystic area multiplied by kidney/body weight ratio
Procedure: jck mice was administered Compound A ad libitum in feed (0.225% Compound A mixed with a standard diet chow in powdered format) from 26-64 days of age. Control jck mice were fed a control powdered diet from 26-64 days of age. At 63 days of age, animals were transferred to metabolic cages for 24 hour urine collection. At 64 days of age, animals were sacrificed by CO2 administration. Blood was collected by heart puncture for serum isolation. Kidneys were isolated and bisected; half of each kidney was fixed in 4% paraformaldehyde in PBS overnight for paraffin embedding and H&E staining.
Total body weight and kidney weight were determined at sacrifice.
Cyst volume was measured by quantitating the percentage of cystic area in histological sections of kidneys from the treated and control animals, multiplied by the kidney/body weight ratio.
Blood urea nitrogen (BUN) levels were determined in serum samples derived from animals at sacrifice.

[1] = treated vs control jck mice, p-value<0.05, two-tailed t-test

CCCCCCCCC(=O)N[C@H](CN1CCCC1)[C@H](O)c1ccc2c(c1)OCCO2 [Compound A, N-((1R,2R)-1-(2,3-dihydrobenzo[1,4|]dioxin-6-yl)-1-hydroxy-3-(pyrrolidin-1-yl)propan-2-yl)nonanamide]
K/BW ratio (%) (female jck mice): 3.57 ± 0.58 %
Body weight (female jck mice): 15.93 ± 1.65 g
BUN (female jck mice, serum at sacrifice): 34.67 ± 9.41 mg/dL
Cystic volume (% BW) (female jck mice): 0.58 ± 0.29 % BW
cystic disease, as measured by kidney/body weight ratio and cyst volume (in feed at 0.225%, both males and females): statistically significant reduction
PKD in a mouse model (jck mice): Effectively Inhibited PKD
K/BW ratio (%) (male jck mice): 4.46 ± 0.46 %
Body weight (male jck mice): 18.43 ± 1.82 g
BUN (male jck mice, serum at sacrifice): 39.25 ± 10.70 mg/dL
Cystic volume (% BW) (male jck mice): 0.88 ± 0.23 % BW
renal function (treated animals relative to controls, in feed at 0.225%, both males and females): improved renal function
cyst volume [1]: significant decrease
kidney weight/body weight ratio [1]: significant difference
total body weight [1]: statistically significant decrease
BUN levels (treated vs untreated control jck mice, serum at sacrifice, p-value<0.05, two-tailed t-test): significant reduction
